The term Ki denotes a dissociation constant, usually derived from enzyme kinetics or from competition with a known ligand.

The assay concerns the target T1, glucocorticoid receptor (Homo sapiens, UniProt P04150).
T1 construct: host or cells: A549 human lung epithelial cells (sonicated cell extract)
T1 sequence (P04150 1-777): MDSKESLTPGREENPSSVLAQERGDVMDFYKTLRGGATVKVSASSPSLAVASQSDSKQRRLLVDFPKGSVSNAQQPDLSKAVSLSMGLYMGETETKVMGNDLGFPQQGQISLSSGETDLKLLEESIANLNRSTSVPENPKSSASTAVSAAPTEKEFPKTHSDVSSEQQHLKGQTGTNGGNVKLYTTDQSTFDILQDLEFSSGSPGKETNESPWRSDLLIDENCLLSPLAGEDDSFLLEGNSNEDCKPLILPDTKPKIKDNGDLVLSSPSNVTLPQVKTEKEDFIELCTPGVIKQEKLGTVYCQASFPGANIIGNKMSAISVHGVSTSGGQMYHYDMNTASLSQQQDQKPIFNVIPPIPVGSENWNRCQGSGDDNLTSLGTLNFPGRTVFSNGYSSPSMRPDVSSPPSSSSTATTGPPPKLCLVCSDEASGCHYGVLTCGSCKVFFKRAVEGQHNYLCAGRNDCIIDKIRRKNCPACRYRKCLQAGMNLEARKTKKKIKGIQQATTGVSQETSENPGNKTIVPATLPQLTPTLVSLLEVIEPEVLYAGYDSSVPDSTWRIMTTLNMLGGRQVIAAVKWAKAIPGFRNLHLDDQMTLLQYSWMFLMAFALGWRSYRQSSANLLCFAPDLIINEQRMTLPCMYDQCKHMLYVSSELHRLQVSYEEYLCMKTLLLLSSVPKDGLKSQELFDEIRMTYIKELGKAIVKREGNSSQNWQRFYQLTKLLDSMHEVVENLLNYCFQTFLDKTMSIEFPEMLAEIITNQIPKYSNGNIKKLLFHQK
The assay can be described thus: Glucocorticoid Receptor Binding Assay ([3H]-dexamethasone displacement, A549 cell extract). Conditions: A549 human lung epithelial cell extract, 1.86 nM [3H]-dexamethasone; read-out: GR Ki. The gist of the method:
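A549 cell extract (50-200 ug; buffer 50 mM Tris-HCl pH 7.2 with glycerol, NaCl, MgCl2, EDTA, 10 mM molybdate) incubated with 1.86 nM [3H]-dexamethasone and test compound, 16 h at 4 °C. Unbound ligand removed with dextran-coated charcoal; bound radioactivity counted. IC50 converted to Ki via Cheng-Prusoff.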
With `Cc1cc(C2(c3cc(C)c(O)c(C)c3)C(=O)N(c3ccccc3)c3ccccc32)cc(C)c1O` [Example 126, 3,3-Bis-(4-hydroxy-3,5-dimethyl-phenyl)-1-phenyl-1,3-dihydro-indol-2-one], the Ki is at most 500 nM. `COc1ccc(-c2nc(CN3C(=O)C(c4cc(C)c(O)c(C)c4)(c4cc(C)c(O)c(C)c4)c4ccccc43)no2)cc1` [Example 99, 3,3-Bis-(4-hydroxy-3,5-dimethyl-phenyl)-1-[5-(4-methoxy-phenyl)-[1,2,4]oxadiazol-3-ylmethyl]-1,3-dihydro-indol-2-one]: the Ki is at most 1000 nM.

As for `COc1ccc(N2C(=O)C(c3cc(C)c(O)c(C)c3)(c3cc(C)c(O)c(C)c3)c3ccccc32)cc1OC` [Example 140, 1-(3,4-Dimethoxy-phenyl)-3,3-bis-(4-hydroxy-3,5-dimethyl-phenyl)-1,3-dihydro-indol-2-one], the Ki was at most 500 nM. For the compound `Cc1cc(C2(c3cc(C)c(O)c(C)c3)C(=O)N(c3cccc(F)c3)c3ccccc32)cc(C)c1O` [Example 130, 1-(3-Fluoro-phenyl)-3,3-bis-(4-hydroxy-3,5-dimethyl-phenyl)-1,3-dihydro-indol-2-one], the Ki is at most 500 nM. Consider `Cc1cc(C2(c3cc(C)c(O)c(C)c3)C(=O)N(Cc3ccc(OCc4ccccc4)cc3)c3ccccc32)cc(C)c1O` [Example 74, 1-(4-Benzyloxy-benzyl)-3,3-bis-(4-hydroxy-3,5-dimethyl-phenyl)-1,3-dihydro-indol-2-one], for which the Ki was at most 1000 nM. Regarding `Cc1cc(C2(c3cc(C)c(O)c(C)c3)C(=O)N(c3ccccc3Cl)c3ccccc32)cc(C)c1O` [Example 129, 1-(2-Chloro-phenyl)-3,3-bis-(4-hydroxy-3,5-dimethyl-phenyl)-1,3-dihydro-indol-2-one], the inhibition constant (Ki) is at most 500 nM. In the case of `Cc1cc(C2(c3ccc(O)c(C)c3)C(=O)N(Cc3ccccc3)c3ccccc32)ccc1O` [Example 12, 1-Benzyl-3,3-bis-(4-hydroxy-3-methyl-phenyl)-1,3-dihydro-indol-2-one] it was at most 500 nM; in that of `Cc1cc(C2(c3cc(C)c(O)c(C)c3)C(=O)N(Cc3ccccc3OC(F)F)c3ccccc32)cc(C)c1O` [Example 79, 1-(2-Difluoromethoxy-benzyl)-3,3-bis-(4-hydroxy-3,5-dimethyl-phenyl)-1,3-dihydro-indol-2-one], at most 500 nM.

`Cc1cc(C2(c3cc(C)c(O)c(C)c3)C(=O)N(Cc3c(F)cccc3Cl)c3ccccc32)cc(C)c1O` [Example 76, 1-(2-Chloro-6-fluoro-benzyl)-3,3-bis-(4-hydroxy-3,5-dimethyl-phenyl)-1,3-dihydro-indol-2-one]: the Ki is at most 500 nM. Regarding `Cc1cc(C2(c3cc(C)c(O)c(C)c3)C(=O)N(Cc3ccccc3-c3ccccc3)c3ccccc32)cc(C)c1O` [Example 54, 1-Biphenyl-2-ylmethyl-3,3-bis-(4-hydroxy-3,5-dimethyl-phenyl)-1,3-dihydro-indol-2-one], the Ki is at most 1000 nM.

Consider `COC(=O)c1ccc(CN2C(=O)C(c3cc(C)c(O)c(C)c3)(c3cc(C)c(O)c(C)c3)c3ccccc32)cc1` [Example 3, 4-[3,3-Bis-(4-hydroxy-3,5-dimethyl-phenyl)-2-oxo-2,3-dihydro-indol-1-ylmethyl]-benzoic acid methyl ester], for which the Ki was at most 500 nM. The figure for `Cc1cc(C2(c3ccc(O)cc3)C(=O)N(Cc3ccccc3Cl)c3ccccc32)cc(C)c1O` (centres unmarked) [Example 36, 1-(2-Chloro-benzyl)-3-(4-hydroxy-3,5-dimethyl-phenyl)-3-(4-hydroxy-phenyl)-1,3-dihydro-indol-2-one] is at most 500 nM; for `Cc1cc(C2(c3cc(C)c(O)c(C)c3)C(=O)N(Cc3ccc(F)cc3F)c3ccccc32)cc(C)c1O` [Example 43, 1-(2,4-Difluoro-benzyl)-3,3-bis-(4-hydroxy-3,5-dimethyl-phenyl)-1,3-dihydro-indol-2-one] it is at most 500 nM. With `Cc1cc(C2(c3cc(C)c(O)c(C)c3)C(=O)N(Cc3ccc(-c4csnn4)cc3)c3ccccc32)cc(C)c1O` [Example 84, 3,3-Bis-(4-hydroxy-3,5-dimethyl-phenyl)-1-(4-[1,2,3]thiadiazol-4-yl-benzyl)-1,3-dihydro-indol-2-one], the Ki is at most 500 nM. Regarding `CC(C)=CCN1C(=O)C(c2cc(C)c(O)c(C)c2)(c2cc(C)c(O)c(C)c2)c2ccccc21` [Example 102, 3,3-Bis-(4-hydroxy-3,5-dimethyl-phenyl)-1-(3-methyl-but-2-enyl)-1,3-dihydro-indol-2-one], the Ki was at most 500 nM. The figure for `COc1ccc(CN2C(=O)C(c3cc(C)c(O)c(C)c3)(c3cc(C)c(O)c(C)c3)c3ccccc32)cc1` [Example 1, 3,3-Bis-(4-hydroxy-3,5-dimethyl-phenyl)-1-(4-methoxy-benzyl)-1,3-dihydro-indol-2-one] is at most 500 nM; for `Cc1cc(C2(c3cc(C)c(O)c(C)c3)C(=O)N(Cc3cccc(C)c3F)c3ccccc32)cc(C)c1O` [Example 70, 1-(2-Fluoro-3-methyl-benzyl)-3,3-bis-(4-hydroxy-3,5-dimethyl-phenyl)-1,3-dihydro-indol-2-one] it is at most 500 nM.

Source of the values: US7250442B2, “Dihydroindol-2-one derivatives as steroid hormone nuclear receptor modulators” (Eli Lilly and Company, priority 2003, dated 2007).
